Here are results for 68 sequences from the supplement of paper PMC11208160.

The nature of this series: recombinant UMI read abundance after kanamycin selection (control-corrected) (log10(CPM+1)); higher = more efficient recombination; extreme values may be limits of the assay; sequences stand for … in AGTGCAGAGAAAATCGGCCAGTTTTCTCTGCCTGCAGTCCGCATGCCGTGGGACCCCTTGGGTTCTAACCTGTTGCCTAGATTTATGCAGCGGACTGCCTTTCTCCCAAAGTGATAAACCGG…AGGTTGGTTTCACT; site = the 11-nt donor. In outline:
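Values, expressed as log10(CPM+1), derive from recombinant UMI counts converted to CPM, averaged across replicates and scaled by control-derived factors. Plating was with IPTG (0.07 mM) plus kanamycin or unselected, two replicates each. The screen pooled donor and donor-binding-loop pairs for the IS621 bridge recombinase in Escherichia coli.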
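Note: IS621 bridge recombinase in Escherichia coli cells against a fixed T5 target plasmid.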

As to “CACATATCATGGACCGGTTTTCCCGGTAATCCGTATTTGTC (site CTCATATCTGA)”, the “recombinant UMI read abundance (log10)” value was 0.
Regarding “CACATCCCATGGACCGGTTTTCCCGGTAATCCGTATTTGCA (site CACATCCCTTG)”, the “recombinant UMI read abundance (log10)” value was 2.
The value for “CACCGTTCATGGACCGGTTTTCCCGGTAATCCGTATTTGTG (site CACCGTTCTCA)” was 1.9; that for “CACCTGCCATGGACCGGTTTTCCCGGTAATCCGTATTTGAC (site CACCTGCCTGT)” was 0; that for “CACGCCCCATGGACCGGTTTTCCCGGTAATCCGTATTTGTT (site CACGACCCTAA)” was 0.0224.
Next, “CACGCCCCATGGACCGGTTTTCCCGGTAATCCGTATTTGTT (site CACGCCCCTAA)”: 0.348.
“CACGCCCCATGGACCGGTTTTCCCGGTAATCCGTATTTGTT (site CACGGCCCTAA)”: the “recombinant UMI read abundance (log10)” value came to 0.
Next, “CACGCCCCATGGACCGGTTTTCCCGGTAATCCGTATTTGTT (site CACGTCCCTAA)”: 0.0223; “CACGCCTCATGGACCGGTTTTCCCGGTAATCCGTATTTGCC (site CACACCTCTGG)”: 2.73.
The value for “CACGCCTCATGGACCGGTTTTCCCGGTAATCCGTATTTGCC (site CACCCCTCTGG)” was 1.65; that for “CACGCCTCATGGACCGGTTTTCCCGGTAATCCGTATTTGCC (site CACGCCTCTGG)” was 3.32; that for “CACGCCTCATGGACCGGTTTTCCCGGTAATCCGTATTTGCC (site CACTCCTCTGG)” was 2.11.
The value for “CACGCGACATGGACCGGTTTTCCCGGTAATCCGTATTTGTA (site CACGCGACTTA)” was 2.4; that for “CACGGCCCATGGACCGGTTTTCCCGGTAATCCGTATTTGAT (site CACGGCCCTAA)” was 0.0181.
Consider “CACGGCCCATGGACCGGTTTTCCCGGTAATCCGTATTTGAT (site CACGGCCCTAC)”, for which the “recombinant UMI read abundance (log10)” value stood at 0.0396.
The value for “CACGGCCCATGGACCGGTTTTCCCGGTAATCCGTATTTGAT (site CACGGCCCTAG)” was 0.
With “CACGGCCCATGGACCGGTTTTCCCGGTAATCCGTATTTGAT (site CACGGCCCTAT)”, the “recombinant UMI read abundance (log10)” value was 0.255.
Next, “CACGGCCCATGGACCGGTTTTCCCGGTAATCCGTATTTGGT (site CACGGCCCTAA)”: 0.0236; “CACGGCCCATGGACCGGTTTTCCCGGTAATCCGTATTTGGT (site CACGGCCCTAC)”: 0.00703.
“CACGGCCCATGGACCGGTTTTCCCGGTAATCCGTATTTGGT (site CACGGCCCTAG)”: the “recombinant UMI read abundance (log10)” value is 0.
The value for “CACGGCCCATGGACCGGTTTTCCCGGTAATCCGTATTTGGT (site CACGGCCCTAT)” was 0.456; that for “CACGGCCCATGGACCGGTTTTCCCGGTAATCCGTATTTGTA (site CACGGCCCTAA)” was 0.00609; that for “CACGGCCCATGGACCGGTTTTCCCGGTAATCCGTATTTGTA (site CACGGCCCTCA)” was 0.0202.
In the case of “CACGGCCCATGGACCGGTTTTCCCGGTAATCCGTATTTGTA (site CACGGCCCTGA)”, the “recombinant UMI read abundance (log10)” value was 1.81.
As to “CACGGCCCATGGACCGGTTTTCCCGGTAATCCGTATTTGTA (site CACGGCCCTTA)”, the “recombinant UMI read abundance (log10)” value came out at 0.29.
Next, “CACGGGCCATGGACCGGTTTTCCCGGTAATCCGTATTTGTT (site CACGGACCTAA)”: 0; “CACGGGCCATGGACCGGTTTTCCCGGTAATCCGTATTTGTT (site CACGGCCCTAA)”: 0.234.
Next, “CACGGGCCATGGACCGGTTTTCCCGGTAATCCGTATTTGTT (site CACGGGCCTAA)”: 0.574.
Next, “CACGGGCCATGGACCGGTTTTCCCGGTAATCCGTATTTGTT (site CACGGTCCTAA)”: 0.00819; “CACGGGTCATGGACCGGTTTTCCCGGTAATCCGTATTTGCT (site CACGGGTCTAG)”: 2.17.
As for “CACGGTCCATGGACCGGTTTTCCCGGTAATCCGTATTTGAT (site CACGGTCCTAT)”, the “recombinant UMI read abundance (log10)” value is 0.938.
Next, “CACGGTTCATGGACCGGTTTTCCCGGTAATCCGTATTTGGG (site CACGGTTCTCC)”: 1.03; “CACGTACCATGGACCGGTTTTCCCGGTAATCCGTATTTGCA (site CACGTACCTTG)”: 0.
Take “CACTACTCATGGACCGGTTTTCCCGGTAATCCGTATTTGTT (site CACTACTCTAA)”: the “recombinant UMI read abundance (log10)” value is 2.71.
As to “CACTAGGCATGGACCGGTTTTCCCGGTAATCCGTATTTGTA (site CACTAGGCTTA)”, the “recombinant UMI read abundance (log10)” value is 1.42.
Next, “CACTATGCATGGACCGGTTTTCCCGGTAATCCGTATTTGAT (site CACTATGCTAT)”: 1.93; “CACTCAGCATGGACCGGTTTTCCCGGTAATCCGTATTTGCC (site CACTCAGCTGG)”: 2.5.
Regarding “CACTCCACATGGACCGGTTTTCCCGGTAATCCGTATTTGCG (site CACTCCACTCG)”, the “recombinant UMI read abundance (log10)” value was 1.09.
The value for “CACTCGGCATGGACCGGTTTTCCCGGTAATCCGTATTTGGA (site CACTAGGCTTC)” was 0.232; that for “CACTCGGCATGGACCGGTTTTCCCGGTAATCCGTATTTGGA (site CACTCGGCTTC)” was 1.09.
Next, “CACTCGGCATGGACCGGTTTTCCCGGTAATCCGTATTTGGA (site CACTGGGCTTC)”: 0.201; “CACTCGGCATGGACCGGTTTTCCCGGTAATCCGTATTTGGA (site CACTTGGCTTC)”: 0.0193; “CACTCTTCATGGACCGGTTTTCCCGGTAATCCGTATTTGCC (site CACTCATCTGG)”: 1.6.
Next, “CACTCTTCATGGACCGGTTTTCCCGGTAATCCGTATTTGCC (site CACTCCTCTGG)”: 2.13.
As to “CACTCTTCATGGACCGGTTTTCCCGGTAATCCGTATTTGCC (site CACTCGTCTGG)”, the “recombinant UMI read abundance (log10)” value turned out to be 0.
The value for “CACTCTTCATGGACCGGTTTTCCCGGTAATCCGTATTTGCC (site CACTCTTCTGG)” was 2.07; that for “CACTGTACATGGACCGGTTTTCCCGGTAATCCGTATTTGCG (site CACTGTACTCG)” was 1.83.
Next, “CACTTAGCATGGACCGGTTTTCCCGGTAATCCGTATTTGGA (site CACTTAGCTTC)”: 1.16; “CACTTAGCATGGACCGGTTTTCCCGGTAATCCGTATTTGGA (site CACTTCGCTTC)”: 0.00475; “CACTTAGCATGGACCGGTTTTCCCGGTAATCCGTATTTGGA (site CACTTGGCTTC)”: 0.0129.
As for “CACTTAGCATGGACCGGTTTTCCCGGTAATCCGTATTTGGA (site CACTTTGCTTC)”, the “recombinant UMI read abundance (log10)” value turned out to be 0.
Take “CACTTGCCATGGACCGGTTTTCCCGGTAATCCGTATTTGGA (site CACTTGACTTC)”: the “recombinant UMI read abundance (log10)” value turned out to be 0.0268.
Next, “CACTTGCCATGGACCGGTTTTCCCGGTAATCCGTATTTGGA (site CACTTGCCTTC)”: 0.021.
The value for “CACTTGCCATGGACCGGTTTTCCCGGTAATCCGTATTTGGA (site CACTTGGCTTC)” was 0.0247; that for “CACTTGCCATGGACCGGTTTTCCCGGTAATCCGTATTTGGA (site CACTTGTCTTC)” was 0.137; that for “CACTTGGCATGGACCGGTTTTCCCGGTAATCCGTATTTGGA (site AACTTGGCTTC)” was 0.00381.
Next, “CACTTGGCATGGACCGGTTTTCCCGGTAATCCGTATTTGGA (site CAATTGGCTTC)”: 0.432; “CACTTGGCATGGACCGGTTTTCCCGGTAATCCGTATTTGGA (site CACATGGCTTC)”: 0.0226; “CACTTGGCATGGACCGGTTTTCCCGGTAATCCGTATTTGGA (site CACCTGGCTTC)”: 0.612.
On to “CACTTGGCATGGACCGGTTTTCCCGGTAATCCGTATTTGGA (site CACGTGGCTTC)”, for which the “recombinant UMI read abundance (log10)” value stood at 0.024.
Next, “CACTTGGCATGGACCGGTTTTCCCGGTAATCCGTATTTGGA (site CACTAGGCTTC)”: 0.104; “CACTTGGCATGGACCGGTTTTCCCGGTAATCCGTATTTGGA (site CACTCGGCTTC)”: 0.0123; “CACTTGGCATGGACCGGTTTTCCCGGTAATCCGTATTTGGA (site CACTGGGCTTC)”: 0.0362.
The value for “CACTTGGCATGGACCGGTTTTCCCGGTAATCCGTATTTGGA (site CACTTAGCTTC)” was 1.14.
Next, “CACTTGGCATGGACCGGTTTTCCCGGTAATCCGTATTTGGA (site CACTTCGCTTC)”: 0.0367; “CACTTGGCATGGACCGGTTTTCCCGGTAATCCGTATTTGGA (site CACTTGACTTC)”: 0.231; “CACTTGGCATGGACCGGTTTTCCCGGTAATCCGTATTTGGA (site CACTTGCCTTC)”: 0.407.
For “CACTTGGCATGGACCGGTTTTCCCGGTAATCCGTATTTGGA (site CACTTGGCTAC)”, the “recombinant UMI read abundance (log10)” value came out at 0.013.
